The results in this text go back to paper PMC9927415, “Tyrosine Kinase Inhibitors Display Potent Activity against Cryptosporidium parvum” (Microbiology Spectrum, 2022).

Assay in all cases: KINOMEscan competitive binding
The target in one assay is T1, FLT3 (Homo sapiens, UniProt P36888).
T1 construct: purchased DiscoverX (KINOMEscan)
T1 sequence (P36888 27-993): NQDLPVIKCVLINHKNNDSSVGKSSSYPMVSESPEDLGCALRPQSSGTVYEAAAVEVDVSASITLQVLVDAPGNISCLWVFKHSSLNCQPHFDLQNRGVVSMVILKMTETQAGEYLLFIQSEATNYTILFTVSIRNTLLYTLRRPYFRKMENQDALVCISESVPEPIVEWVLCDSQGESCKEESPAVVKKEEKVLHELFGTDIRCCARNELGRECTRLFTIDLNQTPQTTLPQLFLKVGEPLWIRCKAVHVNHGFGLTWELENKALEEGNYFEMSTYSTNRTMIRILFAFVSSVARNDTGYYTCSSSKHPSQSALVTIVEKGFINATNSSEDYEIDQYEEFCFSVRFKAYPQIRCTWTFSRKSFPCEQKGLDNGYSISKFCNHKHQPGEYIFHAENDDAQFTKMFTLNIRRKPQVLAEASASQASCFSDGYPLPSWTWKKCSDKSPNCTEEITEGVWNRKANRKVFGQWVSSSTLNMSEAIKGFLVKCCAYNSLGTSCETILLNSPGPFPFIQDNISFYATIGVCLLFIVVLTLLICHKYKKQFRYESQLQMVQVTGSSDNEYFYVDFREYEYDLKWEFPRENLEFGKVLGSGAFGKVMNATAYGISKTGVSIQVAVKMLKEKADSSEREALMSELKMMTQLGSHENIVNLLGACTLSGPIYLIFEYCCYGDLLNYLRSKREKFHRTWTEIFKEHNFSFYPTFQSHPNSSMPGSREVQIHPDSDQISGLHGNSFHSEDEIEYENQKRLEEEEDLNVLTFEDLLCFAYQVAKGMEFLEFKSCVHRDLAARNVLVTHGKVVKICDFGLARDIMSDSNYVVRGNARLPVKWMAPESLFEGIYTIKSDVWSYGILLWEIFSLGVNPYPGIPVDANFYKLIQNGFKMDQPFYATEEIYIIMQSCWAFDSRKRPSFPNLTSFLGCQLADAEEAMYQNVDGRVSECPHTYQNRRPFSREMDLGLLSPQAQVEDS
The text has this: (§1) The kinases were expressed as fusions to T7 bacteriophage. This is a sensitive, competitive binding assay where test compounds were used to displace immobilized ATP-site binding probe ligands from kinases of interest. The amount of kinase that remained bound to the immobilized probe ligands on the solid support was quantified. Percentage inhibition data were was plotted on kinome trees using the web-based tool KinMap (http://www.kinhub.org/kinmap) ([60]).

For another assay, the target named is T2, TTK (Homo sapiens, UniProt P33981).
T2 construct: purchased DiscoverX (KINOMEscan)
T2 sequence (P33981 1-857): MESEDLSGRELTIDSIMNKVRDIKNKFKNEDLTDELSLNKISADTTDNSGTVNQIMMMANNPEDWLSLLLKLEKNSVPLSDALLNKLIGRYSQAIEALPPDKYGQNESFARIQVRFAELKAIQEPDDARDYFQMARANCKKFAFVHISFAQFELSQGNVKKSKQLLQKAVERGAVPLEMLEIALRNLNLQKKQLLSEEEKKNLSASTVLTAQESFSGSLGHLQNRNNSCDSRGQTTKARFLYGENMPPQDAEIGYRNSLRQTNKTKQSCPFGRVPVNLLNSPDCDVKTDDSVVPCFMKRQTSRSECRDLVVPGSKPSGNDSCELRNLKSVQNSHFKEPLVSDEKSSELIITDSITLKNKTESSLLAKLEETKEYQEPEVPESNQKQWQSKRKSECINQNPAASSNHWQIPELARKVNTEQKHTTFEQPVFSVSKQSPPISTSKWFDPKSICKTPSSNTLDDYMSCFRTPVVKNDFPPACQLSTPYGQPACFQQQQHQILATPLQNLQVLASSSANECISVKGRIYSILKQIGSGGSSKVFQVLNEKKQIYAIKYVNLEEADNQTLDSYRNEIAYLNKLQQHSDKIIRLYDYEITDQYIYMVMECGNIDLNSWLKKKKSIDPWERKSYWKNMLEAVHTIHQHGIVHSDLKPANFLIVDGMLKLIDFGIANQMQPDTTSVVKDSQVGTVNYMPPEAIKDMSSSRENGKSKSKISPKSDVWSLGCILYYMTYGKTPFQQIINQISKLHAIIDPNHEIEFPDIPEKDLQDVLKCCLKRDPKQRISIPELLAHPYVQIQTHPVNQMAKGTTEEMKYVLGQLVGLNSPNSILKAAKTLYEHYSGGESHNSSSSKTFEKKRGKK
Text: as §1

A further assay concerns the target T3, CSNK1E (Homo sapiens, UniProt P49674).
T3 construct: purchased DiscoverX (KINOMEscan)
Text: as §1

For another assay, the target named is T4, AAK1 (Homo sapiens, UniProt Q2M2I8).
T4 construct: purchased DiscoverX (KINOMEscan)
Text: as §1

Another assay concerns the target T5, CLK2 (Homo sapiens, UniProt P49760).
T5 construct: purchased DiscoverX (KINOMEscan)
Text: as §1

In the next assay the target is T6, FLT1 (Homo sapiens, UniProt P17948).
T6 construct: purchased DiscoverX (KINOMEscan)
The settings on record: for inhibition at 10 µM: n=1, kinase FLT1, read-out: Percent inhibition FLT1.
Text: as §1

For a further assay, the target named is T7, JAK1(JH2) (Homo sapiens, UniProt P23458).
T7 construct: JAK1(JH2); purchased DiscoverX (KINOMEscan)
Text: as §1

The next assay has as its target T8, LKB1 (Homo sapiens, UniProt Q15831).
T8 construct: purchased DiscoverX (KINOMEscan)
T8 sequence (Q15831 1-433): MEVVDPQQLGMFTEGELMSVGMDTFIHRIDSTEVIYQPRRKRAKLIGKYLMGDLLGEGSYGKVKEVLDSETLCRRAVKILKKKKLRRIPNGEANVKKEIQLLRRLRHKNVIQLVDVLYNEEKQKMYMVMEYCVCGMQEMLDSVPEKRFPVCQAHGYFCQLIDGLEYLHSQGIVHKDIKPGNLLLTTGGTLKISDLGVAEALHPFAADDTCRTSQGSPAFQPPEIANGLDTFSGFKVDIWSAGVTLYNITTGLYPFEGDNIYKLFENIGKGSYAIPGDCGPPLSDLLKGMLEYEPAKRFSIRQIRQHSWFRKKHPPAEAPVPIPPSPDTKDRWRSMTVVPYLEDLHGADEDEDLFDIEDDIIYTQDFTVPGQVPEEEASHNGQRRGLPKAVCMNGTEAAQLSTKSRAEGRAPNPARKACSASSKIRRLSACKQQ
Text: as §1

The mark [1] stands for this setting: 10 µM, n=1, kinase FLT3, read-out: Percent inhibition FLT3.
[2] abbreviates: KINOMEscan, 10 µM, n=1, read-out: Percent inhibition, TTK.
[3] abbreviates: 10 µM, n=1, kinase CSNK1E, read-out: Percent inhibition CSNK1E.
The mark [4] stands for this setting: 10 µM, n=1, kinase AAK1, read-out: Percent inhibition AAK1.
[5] abbreviates: 10 µM, n=1, kinase CLK2, read-out: Percent inhibition CLK2.
[6] abbreviates: 10 µM, n=1, kinase JAK1(Kin.Dom.1), read-out: Percent inhibition JAK1(Kin.Dom.1).
The mark [7] stands for this setting: 10 µM, n=1, kinase LKB1, read-out: Percent inhibition LKB1.
The mark [8] stands for this setting: 10 μM, n = 1, read-out: percent inhibition FLT3.

In general, inhibition refers to the share of the control response that was lost under treatment.

Molecules are shown by their SMILES. Where two headings read alike, the source gives them in different places.

T4 sequence (Q2M2I8 whole entry): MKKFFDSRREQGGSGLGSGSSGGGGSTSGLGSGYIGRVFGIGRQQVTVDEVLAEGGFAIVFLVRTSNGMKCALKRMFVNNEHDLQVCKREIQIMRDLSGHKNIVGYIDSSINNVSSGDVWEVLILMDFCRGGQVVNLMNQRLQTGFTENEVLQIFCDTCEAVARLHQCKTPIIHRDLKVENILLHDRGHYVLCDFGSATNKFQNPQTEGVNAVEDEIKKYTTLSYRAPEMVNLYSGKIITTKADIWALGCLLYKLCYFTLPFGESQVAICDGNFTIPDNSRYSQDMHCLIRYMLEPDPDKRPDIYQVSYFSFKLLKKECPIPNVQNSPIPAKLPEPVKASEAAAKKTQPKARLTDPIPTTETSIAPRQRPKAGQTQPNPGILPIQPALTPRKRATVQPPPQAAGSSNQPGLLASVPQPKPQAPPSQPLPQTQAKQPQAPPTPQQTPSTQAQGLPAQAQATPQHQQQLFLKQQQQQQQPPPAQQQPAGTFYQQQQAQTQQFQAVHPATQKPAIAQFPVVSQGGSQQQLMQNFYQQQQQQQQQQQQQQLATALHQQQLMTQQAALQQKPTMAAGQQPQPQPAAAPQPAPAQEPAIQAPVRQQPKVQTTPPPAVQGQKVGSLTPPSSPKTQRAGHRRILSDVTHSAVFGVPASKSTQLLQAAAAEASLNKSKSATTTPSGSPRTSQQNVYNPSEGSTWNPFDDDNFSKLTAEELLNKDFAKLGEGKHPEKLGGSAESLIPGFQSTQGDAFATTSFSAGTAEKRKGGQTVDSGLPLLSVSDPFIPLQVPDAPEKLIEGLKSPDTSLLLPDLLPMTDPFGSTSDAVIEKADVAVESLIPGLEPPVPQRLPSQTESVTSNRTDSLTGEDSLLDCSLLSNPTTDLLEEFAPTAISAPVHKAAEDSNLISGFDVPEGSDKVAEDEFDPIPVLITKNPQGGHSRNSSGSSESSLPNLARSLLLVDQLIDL
T6 sequence (P17948 27-1338): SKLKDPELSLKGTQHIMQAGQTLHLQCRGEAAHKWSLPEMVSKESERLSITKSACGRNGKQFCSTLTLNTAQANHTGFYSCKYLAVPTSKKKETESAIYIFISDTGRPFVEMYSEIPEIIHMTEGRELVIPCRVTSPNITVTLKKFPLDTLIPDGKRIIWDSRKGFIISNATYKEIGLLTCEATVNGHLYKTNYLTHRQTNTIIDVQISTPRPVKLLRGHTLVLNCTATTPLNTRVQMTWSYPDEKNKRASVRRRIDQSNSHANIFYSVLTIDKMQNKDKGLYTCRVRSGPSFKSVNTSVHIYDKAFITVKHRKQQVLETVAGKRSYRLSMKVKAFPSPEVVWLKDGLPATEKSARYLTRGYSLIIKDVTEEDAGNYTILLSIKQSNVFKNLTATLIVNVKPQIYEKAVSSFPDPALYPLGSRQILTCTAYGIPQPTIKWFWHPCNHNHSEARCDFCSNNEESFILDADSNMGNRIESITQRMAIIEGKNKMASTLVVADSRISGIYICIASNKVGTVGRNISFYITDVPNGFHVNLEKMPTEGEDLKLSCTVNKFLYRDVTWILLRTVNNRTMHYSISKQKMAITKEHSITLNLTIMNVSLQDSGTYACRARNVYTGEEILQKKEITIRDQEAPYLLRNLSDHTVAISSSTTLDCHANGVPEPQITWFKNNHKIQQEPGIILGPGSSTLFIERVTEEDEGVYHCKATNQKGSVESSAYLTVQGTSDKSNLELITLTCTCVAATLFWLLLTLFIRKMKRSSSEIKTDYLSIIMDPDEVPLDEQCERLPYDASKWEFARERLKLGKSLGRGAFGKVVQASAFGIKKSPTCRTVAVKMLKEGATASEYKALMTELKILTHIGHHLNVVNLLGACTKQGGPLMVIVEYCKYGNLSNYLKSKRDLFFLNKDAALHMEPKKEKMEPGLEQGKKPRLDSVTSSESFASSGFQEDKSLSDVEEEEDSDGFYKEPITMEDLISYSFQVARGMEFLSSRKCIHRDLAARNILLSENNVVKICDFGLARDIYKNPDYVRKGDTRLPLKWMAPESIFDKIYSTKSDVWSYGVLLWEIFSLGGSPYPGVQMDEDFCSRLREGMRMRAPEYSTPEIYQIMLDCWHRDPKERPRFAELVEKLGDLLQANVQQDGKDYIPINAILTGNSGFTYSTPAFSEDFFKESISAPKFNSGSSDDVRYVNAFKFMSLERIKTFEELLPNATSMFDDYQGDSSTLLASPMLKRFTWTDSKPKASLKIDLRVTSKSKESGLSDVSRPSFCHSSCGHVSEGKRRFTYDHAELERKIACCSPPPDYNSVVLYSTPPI
T7 sequence (P23458 583-855 limits assumed): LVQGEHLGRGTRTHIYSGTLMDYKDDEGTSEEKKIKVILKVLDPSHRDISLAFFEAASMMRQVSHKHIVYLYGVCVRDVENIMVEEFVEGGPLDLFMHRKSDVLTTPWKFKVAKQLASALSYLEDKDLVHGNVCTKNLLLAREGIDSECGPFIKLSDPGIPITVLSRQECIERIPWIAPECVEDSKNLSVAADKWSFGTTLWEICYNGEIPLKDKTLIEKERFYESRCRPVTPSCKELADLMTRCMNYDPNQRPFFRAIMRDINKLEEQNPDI
T5 sequence (P49760 whole entry): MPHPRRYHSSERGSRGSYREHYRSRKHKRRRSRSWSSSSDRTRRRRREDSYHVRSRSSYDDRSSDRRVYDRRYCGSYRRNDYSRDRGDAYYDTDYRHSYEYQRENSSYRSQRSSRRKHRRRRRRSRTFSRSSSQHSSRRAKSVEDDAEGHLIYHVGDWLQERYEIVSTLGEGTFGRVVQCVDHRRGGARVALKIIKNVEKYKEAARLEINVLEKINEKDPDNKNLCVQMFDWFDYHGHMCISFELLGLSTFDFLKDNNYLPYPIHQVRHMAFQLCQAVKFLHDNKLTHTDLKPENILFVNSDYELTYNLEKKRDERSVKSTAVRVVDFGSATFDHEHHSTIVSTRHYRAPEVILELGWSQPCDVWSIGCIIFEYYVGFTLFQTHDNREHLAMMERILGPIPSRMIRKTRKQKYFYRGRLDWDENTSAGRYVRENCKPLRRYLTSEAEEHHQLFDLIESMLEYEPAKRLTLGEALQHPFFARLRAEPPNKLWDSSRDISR
T3 sequence (P49674 whole entry): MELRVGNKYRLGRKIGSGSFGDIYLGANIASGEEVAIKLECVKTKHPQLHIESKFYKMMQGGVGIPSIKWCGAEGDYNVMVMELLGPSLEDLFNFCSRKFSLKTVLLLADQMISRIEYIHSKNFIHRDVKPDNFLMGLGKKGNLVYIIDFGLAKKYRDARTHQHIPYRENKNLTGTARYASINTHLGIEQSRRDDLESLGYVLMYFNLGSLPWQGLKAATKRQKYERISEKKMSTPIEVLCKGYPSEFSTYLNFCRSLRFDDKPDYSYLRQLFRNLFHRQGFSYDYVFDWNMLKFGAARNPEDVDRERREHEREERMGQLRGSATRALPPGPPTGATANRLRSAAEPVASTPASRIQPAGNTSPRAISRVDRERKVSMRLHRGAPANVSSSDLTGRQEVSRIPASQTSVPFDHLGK

Consider `CN1CCN(c2ccc(Nc3nccc(-c4cnn5ncccc45)n3)cc2C#N)CC1` [Compound 1], for which the inhibition at 10 µM on FLT3 (setting [1]) came to 100%; on TTK (setting [2]) it was 99.9%; at CSNK1E (setting [3]), 100%; on AAK1 (setting [4]) it was 99.9%; on CLK2 (setting [5]), 100%; at FLT1, 99.9%. The inhibition at 10 µM at JAK1(JH2) (setting [6]) and at LKB1 (setting [7]) was 100% in each case.

On to `COc1ccc(Nc2nccc(-c3cnn4ncccc34)n2)cc1` [Compound 2], for which the inhibition at 10 µM came out at 99.3% on FLT3 (setting [1]); 100% on TTK (setting [2]); 100% on CSNK1E (setting [3]); 99.7% on AAK1 (setting [4]); 99.9% at CLK2 (setting [5]); 99.5% at FLT1. The inhibition at 10 µM stood at 95.5% at JAK1(JH2) (setting [6]) and 96.1% on LKB1 (setting [7]).

Turning to `Cc1ccc(O)cc1Nc1ccnc(Nc2cccc(C(N)=O)c2)n1` [Compound 3], the inhibition at 10 µM on FLT3 (setting [1]) was 89%; at TTK (setting [2]), 98.7%; at CSNK1E (setting [3]), 100%; at AAK1 (setting [4]) it was 0%; on CLK2 (setting [5]), 91.5%; on FLT1, 98.3%. For the same compound, the inhibition at 10 µM at JAK1(JH2) (setting [6]) was 0%; at LKB1 (setting [7]) it was 74.3%.

Consider `Cc1ccc(O)cc1N(C)c1ccnc(Nc2cccc(S(N)(=O)=O)c2)n1` [Compound 4], for which the inhibition at 10 µM at FLT3 (setting [1]) was 92.3%; at TTK (setting [2]), 91.8%; at CSNK1E (setting [3]), 100%; on AAK1 (setting [4]), 0%; at CLK2 (setting [5]), 84.5%; at FLT1 it was 99.4%. Also, the inhibition at 10 µM came out at 0% on JAK1(JH2) (setting [6]) and 77.3% at LKB1 (setting [7]).

For the compound `Fc1cccc(COc2ccc(Nc3ncnc4c3CN(CCN3CCOCC3)CC4)cc2Cl)c1` [Compound 6], the inhibition at 10 µM on FLT3 (setting [1]), on TTK (setting [2]), at CSNK1E (setting [3]), on AAK1 (setting [4]), on CLK2 (setting [5]) and on FLT1 was 0% throughout. Also, the inhibition at 10 µM at JAK1(JH2) (setting [6]) and at LKB1 (setting [7]) was 0% throughout.

On to `COc1cc(Nc2nccc(-c3sc(N)nc3-c3cccc(NC(=O)c4c(F)cccc4F)c3)n2)cc(OC)c1OC` [Compound 7], for which the inhibition at 10 µM was 99.8% at FLT3 (setting [1]); 99.2% on TTK (setting [2]); 99.9% at CSNK1E (setting [3]); 92.8% on AAK1 (setting [4]); 0% at CLK2 (setting [5]); 99.2% at FLT1. In addition, the inhibition at 10 µM at JAK1(JH2) (setting [6]) and at LKB1 (setting [7]) was 0% each time.

In the case of `C[C@@H](Oc1cc(-c2cnc3ccccn23)sc1C(N)=O)c1ccccc1Cl` [Compound 8], the inhibition at 10 µM on FLT3 (setting [1]) was determined as 98.6%; at TTK (setting [2]) it was 69.8%; at CSNK1E (setting [3]) it was 71.7%; on AAK1 (setting [4]) it was 97.5%; on CLK2 (setting [5]), 0%; at FLT1 it was 70%. The inhibition at 10 µM on JAK1(JH2) (setting [6]) came out at 87.8%; at LKB1 (setting [7]) it was 98.3%.

`c1ccc(COc2cccc(-c3ccnc4[nH]ccc34)c2)cc1` [Compound 9]: the inhibition at 10 µM at FLT3 (setting [8]) is at least 90%; at FLT3 (setting [1]), 91.1%; on TTK (setting [2]), 0%; on CSNK1E (setting [3]), 0%; on AAK1 (10 μM, n = 1, read-out: percent inhibition AAK1) it was at least 90%; on AAK1 (setting [4]), 95.1%. Further, the inhibition at 10 µM is 0% at CLK2 (setting [5]); 0% on FLT1; 0% at JAK1(JH2) (setting [6]); at least 99% at LKB1 (10 μM, n = 1, read-out: percent inhibition LKB1); 99.5% at LKB1 (setting [7]).

With `Clc1ccc(Nc2ncc(-c3ccccc3)s2)cc1` [Compound 10], the inhibition at 10 µM on FLT3 (setting [8]) is over 90%; on FLT3 (setting [1]), 97.1%; at TTK (setting [2]), 0%; at CSNK1E (setting [3]) it was 0%; on AAK1 (setting [4]) it was 0%; at CLK2 (setting [5]), 0%. The inhibition at 10 µM at FLT1 amounted to 0%; on JAK1(JH2) (setting [6]), 0%; on LKB1 (setting [7]), 67.6%. Moreover, the “inhibition of FLT1, in words” value on FLT1 (kinome profiling, 10 μM) is listed as “relatively weak inhibition”.

As to `Nc1ncc2c(-c3ccncc3)c[nH]c2n1` [Compound 11], the inhibition at 10 µM on FLT3 (setting [1]) was 94.5%; on TTK (10 μM, n = 1, read-out: percent inhibition TTK), at least 99%; at TTK (setting [2]), 99.5%; at CSNK1E (10 μM, n = 1, read-out: percent inhibition CSNK1E) it was at least 99%; at CSNK1E (setting [3]), 100%; at AAK1 (setting [4]), 79.4%. For the same compound, the inhibition at 10 µM is at least 99% at CLK2 (10 μM, n = 1, read-out: percent inhibition CLK2); 99.9% at CLK2 (setting [5]); 0% at FLT1; at least 99% on JAK1(JH2) (10 μM, n = 1, read-out: percent inhibition JAK1(JH2)); 99% at JAK1(JH2) (setting [6]); 80% on LKB1 (setting [7]).
